Test results: patent publication US8546401B2, “5,6-disubstituted oxindole-derivatives and use thereof for treating vasopressin-dependent diseases” (AbbVie Deutschland GmbH & Co. KG, priority 2007, dated 2013)

How the values were obtained:
[1] = biological target: T1, human vasopressin V1a receptor (Homo sapiens, UniProt P37288); experiment: Vasopressin V1a receptor binding assay; details: selectivity quotient, human receptors
T1 construct: expressed in transfected cells; host or cells: CHO-K1 (cell line hV1a_5_CHO), membrane preparation
Procedure: 2. Vasopressin V1a Receptor Binding Assay:
The test substances were dissolved in a concentration of 10^−2 M in DMSO. Further dilution of these DMSO solutions took place in incubation buffer (50 mM Tris, 10 mM MgCl2, 0.1% BSA, pH 7.4).
(§1) CHO-K1 cells with stably expressed human vasopressin V1a receptor (clone 5) were harvested and homogenized in 50 mM Tris-HCl and in the presence of protease inhibitors (Roche complete Mini #1836170) using a Polytron homogenizer at intermediate setting for 2×10 seconds, and subsequently centrifuged at 40 000×g for 1 h. The membrane pellet was again homogenized and centrifuged as described and subsequently taken up in 50 mM Tris-HCl, pH 7.4, homogenized and stored in aliquots frozen in liquid nitrogen at −190° C.
(§2) The binding assay was carried out by the method based on that of Tahara et al. (Tahara A et al., Brit. J. Pharmacol. 125, 1463-1470 (1998)).
(§3) The incubation buffer was: 50 mM Tris, 10 mM MgCl2, 0.1% BSA, pH 7.4.
In the assay mixture (250 μl), membranes (20 μg/ml protein in incubation buffer) from CHO-K1 cells with stably expressed human V1a receptors (cell line hV1a—5_CHO) were incubated with 0.04 nM ^125I-AVP (8-Arg-vasopressin, NEX 128) in incubation buffer (50 mM Tris, 10 mM MgCl2, 0.1% BSA, pH 7.4) (total binding) or additionally with increasing concentrations of test substance (displacement experiment). The nonspecific binding was determined with 1 μM AVP (Bachem #H1780). Triplicate determinations were carried out.
After incubation (60 minutes at room temperature), the free radioligand was filtered off by vacuum filtration (Skatron cell harvester 7000) through Wathman GF/B glass fiber filter mats, and the filters were transferred into scintillation vials.
The liquid scintillation measurement took place in a model 2000 or 2200CA Tricarb instrument (Packard). Conversion of the measured cpm into dpm was carried out with the aid of a standard quench series.
(§4) The binding parameters were calculated by nonlinear regression in SAS. The algorithms of the program operate in analogy to the LIGAND analysis program (Munson P J and Rodbard D, Analytical Biochem. 107, 220-239 (1980)). The Kd of ^125I-AVP for the recombinant hV1a receptors was determined in saturation experiments. A Kd of 1.33 nM was used to determine the Ki.

[2] = biological target: T2, human oxytocin receptors (Homo sapiens, UniProt P30559); experiment: Oxytocin receptor binding assay; details: selectivity quotient
T2 construct: expressed in transfected cells; host or cells: HEK-293, transient expression; lysed and homogenized cells
T2 sequence (P30559 1-389): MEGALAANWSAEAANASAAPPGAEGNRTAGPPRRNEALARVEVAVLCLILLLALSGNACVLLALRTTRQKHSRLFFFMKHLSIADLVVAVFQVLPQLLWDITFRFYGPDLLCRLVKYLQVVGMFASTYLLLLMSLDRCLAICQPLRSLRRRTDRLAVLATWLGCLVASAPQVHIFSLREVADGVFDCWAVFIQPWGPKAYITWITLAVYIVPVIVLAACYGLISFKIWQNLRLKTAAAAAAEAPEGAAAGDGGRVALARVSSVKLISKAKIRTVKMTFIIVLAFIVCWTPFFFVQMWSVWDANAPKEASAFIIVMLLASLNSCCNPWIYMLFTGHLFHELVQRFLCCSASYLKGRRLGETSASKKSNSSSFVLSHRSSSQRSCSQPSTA
Procedure: 4. Oxytocin Receptor Binding Assay
The substances were dissolved in a concentration of 10^−2 M in DMSO and diluted with incubation buffer (50 mM Tris, 10 mM MgCl2, 0.1% BSA, pH 7.4).
Confluent HEK-293 cells with transiently expressing recombinant human oxytocin receptors were centrifuged at 750×g at room temperature for 5 minutes. The residue was taken up in ice-cold lysis buffer (50 mM Tris-HCl, 10% glycerol, pH 7.4 and Roche complete protease inhibitor) and subjected to an osmotic shock at 4° C. for 20 minutes. The lyzed cells were then centrifuged at 750×g at 4° C. for 20 minutes, the residue was taken up in incubation buffer, and aliquots of 10^7 cells/ml were prepared. The aliquots were frozen at −80° C. until used.
On the day of the experiment, the cells were thawed, diluted with incubation buffer and homogenized using a Multipette Combitip (Eppendorf, Hamburg). The reaction mixture of 0.250 ml was composed of 2 to 5×10^4 recombinant cells, 3-4 nM ^3H-oxytocin (PerkinElmer, NET 858) in the presence of test substance (inhibition plot) or only incubation buffer (total binding). The nonspecific binding was determined with 10^−6 M oxytocin (Bachem AG, H2510). Triplicate determinations were set up. Bound and free radioligand were separated by filtration under vacuum with Whatman GF/B glass fiber filters with the aid of a Skatron cell harvester 7000. The bound radioactivity was determined by liquid scintillation measurement in a Tricarb Beta counter, model 2000 or 2200CA (Packard).
The binding parameters were calculated by nonlinear regression analysis (SAS) in analogy to the LIGAND program of Munson and Rodbard (Analytical Biochem 1980; 107: 220-239). The Kd of ^3H-oxytocin for the recombinant hOT receptors is 7.6 nM and was used to determine the Ki.

[3] = biological target: T3, human vasopressin V1b receptor (Homo sapiens, UniProt P47901); experiment: Vasopressin V1b receptor binding assay; details: CHO-K1 membranes, 3H-AVP displacement
T3 construct: expressed in transfected cells; host or cells: CHO-K1 (cell line hV1b_3H2_CHO), membrane preparation
T3 sequence (P47901 1-424): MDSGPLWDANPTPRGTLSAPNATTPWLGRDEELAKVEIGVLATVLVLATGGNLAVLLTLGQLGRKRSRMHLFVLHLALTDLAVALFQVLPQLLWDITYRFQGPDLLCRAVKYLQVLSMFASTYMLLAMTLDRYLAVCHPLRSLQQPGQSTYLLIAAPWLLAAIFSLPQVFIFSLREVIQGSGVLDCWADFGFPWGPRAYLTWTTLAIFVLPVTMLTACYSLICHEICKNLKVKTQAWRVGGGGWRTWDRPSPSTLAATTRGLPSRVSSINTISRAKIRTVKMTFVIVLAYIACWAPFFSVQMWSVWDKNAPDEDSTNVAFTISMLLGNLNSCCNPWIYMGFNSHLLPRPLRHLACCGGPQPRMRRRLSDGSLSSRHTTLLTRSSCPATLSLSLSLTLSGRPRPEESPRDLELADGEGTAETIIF
Procedure: 1. Vasopressin V1b Receptor Binding Assay:
The test substances were dissolved in a concentration of 10^−2 M in DMSO and further diluted to 5×10^−4 M to 5×10^−3 M. These serial DMSO predilutions were diluted 1:10 with assay buffer. The substance concentration was further diluted 1:5 in the assay mixture (2% DMSO in the mixture).
as §1, with “V1b” for “V1a”, “3H2)” for “5)”
as §2, §3
In the assay mixture (250 μl), membranes (50 μg/ml protein in incubation buffer) from CHO-K1 cells with stably expressed human V1b receptors (cell line hV1b—3H2_CHO) were incubated with 1.5 nM ^3H-AVP (8-Arg-vasopressin, PerkinElmer #18479) in incubation buffer (50 mM Tris, 10 mM MgCl2, 0.1% BSA, pH 7.4) (total binding) or additionally with increasing concentrations of test substance (displacement experiment). The nonspecific binding was determined with […] (Bachem #H1780). All determinations were carried out as triplicate determinations. After incubation (60 minutes at room temperature), the free radioligand was filtered off by vacuum filtration (Skatron cell harvester 7000) through Wathman GF/B glass fiber filter mats, and the filters were transferred into scintillation vials. The liquid scintillation measurement took place in a model 2000 or 2200CA Tricarb instrument (Packard). Conversion of the measured cpm into dpm was carried out with the aid of a standard quench series.
as §4, with “^3H-AVP” for “^125I-AVP”, “human V1b” for “hV1a”, “is 0.4” for “was determined in saturation experiments. A Kd of 1.33”, “nM and” for “nM”

T1 sequence (P37288 whole entry): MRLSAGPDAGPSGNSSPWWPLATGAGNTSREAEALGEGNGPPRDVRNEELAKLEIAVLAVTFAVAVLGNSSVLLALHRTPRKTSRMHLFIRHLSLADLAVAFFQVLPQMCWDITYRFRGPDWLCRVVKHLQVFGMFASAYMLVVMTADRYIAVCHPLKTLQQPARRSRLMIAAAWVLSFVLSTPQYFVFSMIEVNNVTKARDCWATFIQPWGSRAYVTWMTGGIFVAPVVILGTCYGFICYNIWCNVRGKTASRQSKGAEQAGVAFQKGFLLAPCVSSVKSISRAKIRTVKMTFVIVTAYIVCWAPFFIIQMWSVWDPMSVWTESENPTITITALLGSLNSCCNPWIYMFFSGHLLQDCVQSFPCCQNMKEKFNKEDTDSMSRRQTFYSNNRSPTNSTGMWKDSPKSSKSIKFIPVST

Row | SMILES | Ki(h − V1a)/Ki(h − V1b)* [1] | Ki(h − OT)/Ki(h − V1b)* [2] | Ki [3]
1 | CCOc1ccccc1C1(NC(=O)N2CCN(C3CCN(C)CC3)CC2)C(=O)N(S(=O)(=O)c2ccc(OC)cc2)c2cc(F)c(C#N)cc21 (stereo not drawn) [Example 10, 4-(1-Methylpiperidin-4-yl)piperazine-1-[5-cyano-3-(2-ethoxyphenyl)-6-fluoro-1-(4-methoxyphenylsulfonyl)-2-oxo-2,3-dihydro-1H-indol-3-yl]carboxamide] | ++ (25-75) | + (10-<25) | 1 to 10 nM
2 | CCOc1ccccc1C1(NC(=O)N2CCC(N3CCN(C)CC3)CC2)C(=O)N(S(=O)(=O)c2ccc(OC)cc2)c2cc(F)c(C#N)cc21 (stereo not drawn) [Example 15, 4-(4-Methylpiperazin-1-yl)piperidine-1-[5-cyano-3-(2-ethoxyphenyl)-6-fluoro-1-(4-methoxyphenylsulfonyl)-2-oxo-2,3-dihydro-1H-indol-3-yl]carboxamide] | + (10-<25) | +++ (>75) | 1 to 10 nM
3 | CCOc1ccccc1C1(NC(=O)N2CCC(N3CCN(CC)CC3)CC2)C(=O)N(S(=O)(=O)c2ccc(OC)cc2OC)c2cc(F)c(C#N)cc21 (stereo not drawn) [Example 16, 4-(4-Ethylpiperazin-1-yl)piperidine-1-[5-cyano-1-(2,4-dimethoxyphenylsulfonyl)-3-(2-ethoxyphenyl)-6-fluoro-2-oxo-2,3-dihydro-1H-indol-3-yl]carboxamide] | + (10-<25) | +++ (>75) | < 1 nM
4 | CCOc1ccccc1C1(NC(=O)N2CCC(N3CCN(CC)CC3)CC2)C(=O)N(S(=O)(=O)c2ccccc2)c2cc(F)c(C#N)cc21 (stereo not drawn) [Example 18, 4-(4-Ethylpiperazin-1-yl)piperidine-1-[1-phenylsulfonyl-5-cyano-3-(2-ethoxyphenyl)-6-fluoro-2-oxo-2,3-dihydro-1H-indol-3-yl]carboxamide] | + (10-<25) | +++ (>75) | 1 to 10 nM

Now from value to compound:

Row | Ki(h − V1a)/Ki(h − V1b)* [1] | Ki(h − OT)/Ki(h − V1b)* [2] | Ki [3] | SMILES
5 | +++ (>75) | +++ (>75) | < 1 nM | CCOc1ccccc1C1(NC(=O)N2CCN(C3CCN(CC)CC3)CC2)C(=O)N(S(=O)(=O)c2ccc(OC)cc2OC)c2cc(F)c(C#N)cc21 (stereo not drawn) [Example 11, 4-(1-Ethylpiperidin-4-yl)piperazine-1-[5-cyano-1-(2,4-dimethoxyphenylsulfonyl)-3-(2-ethoxyphenyl)-6-fluoro-2-oxo-2,3-dihydro-1H-indol-3-yl]carboxamide]
6 | +++ (>75) | +++ (>75) | 1 to 10 nM | CCOc1ccccc1C1(NC(=O)N2CCN(C3CCN(CC)CC3)CC2)C(=O)N(S(=O)(=O)c2ccc(OC)cc2)c2cc(F)c(C#N)cc21 (stereo not drawn) [Example 12, 4-(1-Ethylpiperidin-4-yl)piperazine-1-[5-cyano-3-(2-ethoxyphenyl)-6-fluoro-1-(4-methoxyphenylsulfonyl)-2-oxo-2,3-dihydro-1H-indol-3-yl]carboxamide]
7 | ++ (25-75) | +++ (>75) | 1 to 10 nM | CCOc1ccccc1C1(NC(=O)N2CCN(C3CCN(CC)CC3)CC2)C(=O)N(S(=O)(=O)c2ccccc2)c2cc(F)c(C#N)cc21 (stereo not drawn) [Example 13, 4-(1-Ethylpiperidin-4-yl)piperazine-1-[1-phenylsulfonyl-5-cyano-3-(2-ethoxyphenyl)-6-fluoro-2-oxo-2,3-dihydro-1H-indol-3-yl]carboxamide]
8 | + (10-<25) | +++ (>75) | 1 to 10 nM | CCOc1ccccc1C1(NC(=O)N2CCC(N3CCN(C)CC3)CC2)C(=O)N(S(=O)(=O)c2ccc(OC)cc2OC)c2cc(F)c(C#N)cc21 (stereo not drawn) [Example 14, 4-(4-Methylpiperazin-1-yl)piperidine-1-[5-cyano-1-(2,4-dimethoxyphenylsulfonyl)-3-(2-ethoxyphenyl)-6-fluoro-2-oxo-2,3-dihydro-1H-indol-3-yl]carboxamide]
9 | + (10-<25) | +++ (>75) | 1 to 10 nM | CCOc1ccccc1C1(NC(=O)N2CCC(N3CCN(CC)CC3)CC2)C(=O)N(S(=O)(=O)c2ccc(OC)cc2)c2cc(F)c(C#N)cc21 (stereo not drawn) [Example 17, 4-(4-Ethylpiperazin-1-yl)piperidine-1-[5-cyano-3-(2-ethoxyphenyl)-6-fluoro-1-(4-methoxyphenylsulfonyl)-2-oxo-2,3-dihydro-1H-indol-3-yl]carboxamide]
